Test results taken from US11198715B2, “Selective Bfl-1 peptides” (MASSACHUSETTS INSTITUTE OF TECHNOLOGY, priority 2016, dated 2021).

Assays:
Bfl-1 = molecular target: T1, Bfl-1 (Homo sapiens, UniProt Q16548); test: Competition fluorescence polarization (anisotropy) binding assay with fluoresceinated Bim; settings: for selective binding to Bfl-1 over other Bcl-2 family proteins: Ki from competition assays with fluoresceinated Bim; for affinity for Bfl-1 relative to PUMA / specificity for Bfl-1 relative to PUMA: inhibition constants, 23-residue peptides (FIG. 2I)
T1 sequence (Q16548 1-175): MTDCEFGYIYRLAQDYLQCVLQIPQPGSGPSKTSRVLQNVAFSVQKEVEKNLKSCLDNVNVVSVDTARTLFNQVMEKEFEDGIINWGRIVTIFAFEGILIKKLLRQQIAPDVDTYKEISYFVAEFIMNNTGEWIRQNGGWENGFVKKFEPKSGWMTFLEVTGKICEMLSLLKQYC
Description: Fluorescence polarization assays were performed in order to measure the binding abilities of the peptide constructs. Competition fluorescence polarization experiments were performed by titrating 10-0 μM of unlabeled peptide into 50 nM receptor with […] fluorecinated Bim (fluorescein-[…]) in FP buffer (25 mM Tris pH 7.8, 50 mM NaCl, 1 mM EDTA, 0.001% v/v Triton-X, 5% DMSO). C-myc-tagged receptors were used for all Bcl-2 homologs. Plates were mixed at room temperature for 3 h. Experiments were done in triplicate.
Ki values were obtained from the competition assays with fluoresceinated Bim peptide.

Bcl-xL = test: Ki (nM) | Bcl-xL
[1] = test system: BCR-ABL-expressing B-ALL cell lines engineered to depend on Bcl-2, Bcl-xL, Mcl-1 or Bfl-1; test: Whole-cell BH3 profiling (JC-1 mitochondrial depolarization, MOMP); format: cell-based; set-up: cross reactivity in non-Bfl-1 dependent lines: dose or concentration left out as unconfirmed; settings: JC-1 readout; for mitochondrial depolarization in cell lines dependent on Mcl-1, Bcl-2, Bcl-xL or Bfl-1: FS peptides at 100 nM
Description: A whole-cell BH3 profiling assay was used to test the specificity of the peptide constructs in several cell lines with known dependencies on anti-apoptotic proteins, including Bcl-2, Mcl-1, Bcl-xL, or Bfl-1. The creation and characterization of the BCR-ABL-expressing B-lineage acute lymphoblastic leukemia suspension cell lines with engineered dependencies on human versions of anti-apoptotic genes is detailed in Koss et al., Oncotarget, 7:11500-11511, 2016. Cells were grown in RPMI (Life Technologies, Carlsbad, Calif.) with 10% fetal bovine serum, 2 mM L-glutamine, 10 mL/L 100× Pen/Strep (Life Technologies #15140122), 25 mM HEPES and 10 mL/L 100×NEAA (Life Technologies, 11140050). The adherent cell lines PC-3 (RRID: CVCL_0035) and SF295 (RRID: CVCL_1690) are from the NCI60 panel (Lorenzi et al., 2009) and were grown in RPMI (Life Technologies) with 10% fetal bovine serum, 2 mM L-glutamine and 10 mL/L 100× Pen/Strep (Life Technologies #15140122). Cell line identities were confirmed by STR profiling. The Lookout Mycoplasma PCR detection kit (Sigma) was used to detect mycoplasma infection. Mycoplasma was only detected in the PC-3 cell line, and internal controls were used to account for this phenotype.
Peptides were titrated by serial dilution in MEB buffer (150 mM Mannitol, 10 mM HEPES-KOH pH 7.5, 50 mM KCl, 0.02 mM EGTA, 0.02 mM EDTA, 0.1% BSA and 5 mM Succinate) containing 20 […], […] and 10 mM 2-mercaptoethanol in 384-well plates. Controls for no depolarization (1% DMSO) and complete depolarization with the mitochondrial oxidative phosphorylation uncoupler FCCP ([…]) were included for data normalization. Cells were suspended at 1.67×10^6 cells/mL in MEB. […] was added to each well containing […] of treatment solution. Fluorescence emission was measured every 5 min for 3 hours at […] with 525 nm excitation on a Tecan Safire2. To produce percent depolarization, the area under the resultant curve was calculated and normalized to the assay controls. Peptide titration curves were fit to sigmoidal dose-response curves using Graphpad PRISM seven to obtain EC50 values.
As depicted in FIG. 9A, in this assay, permeabilized cells were contacted with increasing doses of the BH3 peptides, and mitochondrial outer membrane permeabilization (MOMP) was monitored using a voltage-sensitive dye (JC-1). The apoptotic sensitivity of BCR-ABL-expressing B-lineage acute lymphoblastic leukemia (B-ALL) cell lines engineered to depend on Bcl-2, Bcl-xL, Mcl-1 or Bfl-1 overexpression for survival.

[2] = test system: BCR-ABL-expressing B-ALL cell lines engineered to depend on Bcl-2, Bcl-xL, Mcl-1 or Bfl-1; test: iBH3 profiling, cytochrome c release; format: cell-based; set-up: cross reactivity in non-Bfl-1 dependent lines: dose or concentration left out as unconfirmed
Description: As an additional test for on-pathway activity, cytochrome c release was measured in the same engineered cell lines in response to peptide treatment, using iBH3 profiling (see Ryan et al., Biol. Chem., 397:671-678, 2016). Cells were suspended in MEB buffer (150 mM mannitol, 50 mM KCl, 10 mM HEPES, 5 mM succinic acid, […], 0.1% BSA, final pH 7.4) at 0.5*10^6 cells/mL (adherent lines) or 2*10^6 cells/mL (suspension lines). Cell suspension was added to a 384 non-binding well plate ([…]) containing peptides at 2× final concentration in MEB with […]. Plates were incubated at 25° C. for 1 hour. To terminate exposure, […] in PBS was added to each well, plates were incubated for 10 minutes before addition of […] (1.7 M Tris, 1.25 M glycine, pH 9.1) for 5 min. […] The median fluorescence of the cytochrome c channel of Hoechst positive singlets was recorded by an IntelliCyt iQue Screener Plus. Cytochrome c release was determined by normalizing the median fluorescence intensity (MFI) data to positive control wells (Alamethicin) and negative control wells (DMSO) as follows: Cytochrome release=1−(MFIsample−MFIAlamethicin)/(MFIDMSO−MFIAlamethicin)

| specificity for Bfl-1 relative to PUMA (Bfl-1) | specificity for Bfl-1 relative to Bcl-xL, Bcl-2, Bcl-w and Mcl-1 (Bfl-1; ratio of Ki values) | Ki (Bcl-xL) | Substance | selective binding to Bfl-1 over other Bcl-2 family proteins (Bfl-1) | affinity for Bfl-1 relative to PUMA (Bfl-1) | mitochondrial depolarization in cell lines dependent on Mcl-1, Bcl-2, Bcl-xL or Bfl-1 [1] | potency in cytochrome c release, comparison [2] | cross reactivity in non-Bfl-1 dependent lines ([2]; cytochrome c release) | cross reactivity in non-Bfl-1 dependent lines [1] | potency of mitochondrial depolarization, comparison [1] |
| --- | --- | --- | --- | --- | --- | --- | --- | --- | --- | --- |
| significantly increased specificity | at least 150 fold | 2720 ± 713 nM | Ac-QWVREIAAGLRLAADNVNAQLER-NH2 [FS1] | bound selectivity to Bfl-1 over other Bcl-2 family proteins | reduced affinity for Bfl-1 relative to PUMA | promoted depolarization only in Bfl-1 dependent cells |  |  |  |  |
| significantly increased specificity |  |  | QWIREIAAGLRRFADILNAQVER [FS3] | bound selectivity to Bfl-1 over other Bcl-2 family proteins | reduced affinity for Bfl-1 relative to PUMA | promoted depolarization only in Bfl-1 dependent cells | more potently than FS1 or FS2 | significant cross reactivity | significant cross reactivity | more potently than FS1 or FS2 |
| significantly increased specificity |  |  | QWVREIAAGLRRAADDVNAQVER [FS2] | bound selectivity to Bfl-1 over other Bcl-2 family proteins | reduced affinity for Bfl-1 relative to PUMA | promoted depolarization only in Bfl-1 dependent cells |  |  |  |  |
